The values below come from the NIST ThermoML archive (doi:10.1021/je034182z).

± gives the expanded uncertainty stated by the source.

For data set [1] the following is noted: 298.15 K; 101.33 kPa; Liquid.
Data set [2] is described as follows: refractive index (Na D-line) (dimensionless). The settings on record: 298.15 K; 101.33 kPa; Liquid; Standard Abbe refractometry.

With `C1CCOC1` [tetrahydrofuran], the mass density (in general, the mass of a sample divided by its volume) in data set [1] is recorded as 881.9 ± 1.3 kg/m3. The refractive index (as a rule, the speed of light in vacuum divided by its phase velocity in the sample) in data set [2] came to 1.4047 ± 0.0007.

On to `CCCCCC` [hexane], for which the mass density in data set [1] is on record as 655.1 ± 0.7 kg/m3. Further, the refractive index in data set [2] was found to be 1.3747 ± 0.0007.

Consider `CCCCCCCC` [octane], for which the mass density in data set [1] stood at 698.5 ± 0.8 kg/m3. Besides, the refractive index in data set [2] is recorded as 1.3954 ± 0.0007.

As to `CCCCCCC` [heptane], the mass density in data set [1] is given as 679.4 ± 0.8 kg/m3. Moreover, the refractive index in data set [2] worked out at 1.3854 ± 0.0007.

In the case of `Cc1cccc(C)c1` [1,3-dimethylbenzene], the mass density in data set [1] is given as 860.3 ± 0.5 kg/m3. The refractive index in data set [2] came to 1.4947 ± 0.0007.
